Measured values published in PubChem BioAssay AID1918941 (Molecular Pharmacology Branch, DTP, NCI, 2023).

Test system: SW 1271 complex spheroids, viability
Experiment: Anticancer human tumor SW 1271 cell line growth inhibition [LSD1];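 also: spheroids exposed to agents for 7 days before luminescence read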;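 as to viability, T/C: 100% = DMSO vehicle control viability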
Settings: for IC50: curve of first compound; for viability, T/C: stronger effect = lower value
Outline: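 Drug combinations with the LSD1 inhibitor iadademstat tested on tumor cells co-cultured as spheroids with endothelial cells and mesenchymal stem cells. Concentrations descended in half-log increments from clinical Cmax or 10 microM.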

[1] = second compound 0.1 µM, first compound 0.0316 µM
[2] = second compound 0.1 µM, first compound 0.1 µM
[3] = second compound 0.1 µM, first compound 0.316 µM
[4] = second compound 0.1 µM, first compound 1 µM
[5] = second compound 0.1 µM, first compound 3.16 µM
[6] = second compound 0.1 µM, first compound 10 µM
[7] = second compound 0.316 µM, first compound 0.0316 µM
[8] = second compound 0.316 µM, first compound 0.1 µM
[9] = second compound 0.316 µM, first compound 0.316 µM
[10] = second compound 0.316 µM, first compound 1 µM
[11] = second compound 0.316 µM, first compound 3.16 µM
[12] = second compound 0.316 µM, first compound 10 µM
[13] = second compound 1 µM, first compound 0.0316 µM
[14] = second compound 1 µM, first compound 0.1 µM
[15] = second compound 1 µM, first compound 0.316 µM
[16] = second compound 1 µM, first compound 1 µM
[17] = second compound 1 µM, first compound 3.16 µM
[18] = second compound 1 µM, first compound 10 µM
[19] = second compound 3.16 µM, first compound 0.0316 µM
[20] = second compound 3.16 µM, first compound 0.1 µM
[21] = second compound 3.16 µM, first compound 0.316 µM
[22] = second compound 3.16 µM, first compound 1 µM
[23] = second compound 3.16 µM, first compound 3.16 µM
[24] = second compound 3.16 µM, first compound 10 µM
[25] = second compound 10 µM, first compound 0.0316 µM
[26] = second compound 10 µM, first compound 0.1 µM
[27] = second compound 10 µM, first compound 0.316 µM
[28] = second compound 10 µM, first compound 1 µM
[29] = second compound 10 µM, first compound 3.16 µM
[30] = second compound 10 µM, first compound 10 µM
[31] = second compound 0.1 µM, first compound 0.00949 µM
[32] = second compound 0.1 µM, first compound 0.03 µM
[33] = second compound 0.1 µM, first compound 0.0949 µM
[34] = second compound 0.1 µM, first compound 0.3 µM
[35] = second compound 0.316 µM, first compound 0.00949 µM
[36] = second compound 0.316 µM, first compound 0.03 µM
[37] = second compound 0.316 µM, first compound 0.0949 µM
[38] = second compound 0.316 µM, first compound 0.3 µM
[39] = second compound 1 µM, first compound 0.00949 µM
[40] = second compound 1 µM, first compound 0.03 µM
[41] = second compound 1 µM, first compound 0.0949 µM
[42] = second compound 1 µM, first compound 0.3 µM
[43] = second compound 3.16 µM, first compound 0.00949 µM
[44] = second compound 3.16 µM, first compound 0.03 µM
[45] = second compound 3.16 µM, first compound 0.0949 µM
[46] = second compound 3.16 µM, first compound 0.3 µM
[47] = second compound 10 µM, first compound 0.00949 µM
[48] = second compound 10 µM, first compound 0.03 µM
[49] = second compound 10 µM, first compound 0.0949 µM
[50] = second compound 10 µM, first compound 0.3 µM

Structure (SMILES): CC1(C)CCC(CN2CCN(c3ccc(C(=O)NS(=O)(=O)c4ccc(NCC5CCOCC5)c([N+](=O)[O-])c4)c(Oc4cnc5[nH]ccc5c4)c3)CC2)=C(c2ccc(Cl)cc2)C1 + NC1CCC(NC2CC2c2ccccc2)CC1
- IC50 (second compound 0.1 µM): 2.1 µM
- IC50 (second compound 0.316 µM): 2.05 µM
- IC50 (second compound 1 µM): 2.04 µM
- IC50 (second compound 3.16 µM): 2.17 µM
- IC50 (second compound 10 µM): 2.35 µM
- viability, T/C [1]: 103%
- viability, T/C [2]: 95.6%
- viability, T/C [3]: 94.6%
- viability, T/C [4]: 92.2%
- viability, T/C [5]: 26.9%
- viability, T/C [6]: 0.57%
- viability, T/C [7]: 100%
- viability, T/C [8]: 100%
- viability, T/C [9]: 106%
- viability, T/C [10]: 96.6%
- viability, T/C [11]: 21.6%
- viability, T/C [12]: 0.63%
- viability, T/C [13]: 89.5%
- viability, T/C [14]: 90.5%
- viability, T/C [15]: 99.7%
- viability, T/C [16]: 103%
- viability, T/C [17]: 21.9%
- viability, T/C [18]: 0.38%
- viability, T/C [19]: 96.4%
- viability, T/C [20]: 101%
- viability, T/C [21]: 99%
- viability, T/C [22]: 97.2%
- viability, T/C [23]: 26.9%
- viability, T/C [24]: 0.42%
- viability, T/C [25]: 92.5%
- viability, T/C [26]: 102%
- viability, T/C [27]: 97.8%
- viability, T/C [28]: 95.4%
- viability, T/C [29]: 34.3%
- viability, T/C [30]: 0.66%

Structure (SMILES): CC1COCCN1c1cc(C2(S(C)(=N)=O)CC2)nc(-c2ccnc3[nH]ccc23)n1 (stereo not given) + NC1CCC(NC2CC2c2ccccc2)CC1
- IC50 (second compound 0.1 µM): > 10 µM
- IC50 (second compound 0.316 µM): 8.63 µM
- IC50 (second compound 1 µM): > 10 µM
- IC50 (second compound 3.16 µM): 9.17 µM
- IC50 (second compound 10 µM): 3.28 µM
- viability, T/C [1]: 108%
- viability, T/C [2]: 103%
- viability, T/C [3]: 111%
- viability, T/C [4]: 76.2%
- viability, T/C [5]: 69.1%
- viability, T/C [6]: 58.8%
- viability, T/C [7]: 100%
- viability, T/C [8]: 95.8%
- viability, T/C [9]: 99.1%
- viability, T/C [10]: 81.7%
- viability, T/C [11]: 59.5%
- viability, T/C [12]: 48.3%
- viability, T/C [13]: 94.5%
- viability, T/C [14]: 101%
- viability, T/C [15]: 85.1%
- viability, T/C [16]: 68.2%
- viability, T/C [17]: 72.3%
- viability, T/C [18]: 53.7%
- viability, T/C [19]: 82.9%
- viability, T/C [20]: 88.7%
- viability, T/C [21]: 86.7%
- viability, T/C [22]: 75.9%
- viability, T/C [23]: 73.4%
- viability, T/C [24]: 47.9%
- viability, T/C [25]: 97.4%
- viability, T/C [26]: 92.3%
- viability, T/C [27]: 71.1%
- viability, T/C [28]: 78.4%
- viability, T/C [29]: 50.9%
- viability, T/C [30]: 19.4%

Structure (SMILES): CCN(c1cc(-c2ccc(CN3CCOCC3)cc2)cc(C(=O)NCc2c(C)cc(C)[nH]c2=O)c1C)C1CCOCC1 + NC1CCC(NC2CC2c2ccccc2)CC1
- IC50 (second compound 0.1 µM): > 3 µM
- IC50 (second compound 0.316 µM): > 3 µM
- IC50 (second compound 1 µM): > 3 µM
- IC50 (second compound 3.16 µM): > 3 µM
- IC50 (second compound 10 µM): > 3 µM
- viability, T/C [31]: 98.7%
- viability, T/C [32]: 97%
- viability, T/C [33]: 93.6%
- viability, T/C [34]: 94.8%
- viability, T/C (second compound 0.1 µM, first compound 0.949 µM): 82.5%
- viability, T/C (second compound 0.1 µM, first compound 3 µM): 75%
- viability, T/C [35]: 95%
- viability, T/C [36]: 113%
- viability, T/C [37]: 98.8%
- viability, T/C [38]: 93%
- viability, T/C (second compound 0.316 µM, first compound 0.949 µM): 85.5%
- viability, T/C (second compound 0.316 µM, first compound 3 µM): 67.3%
- viability, T/C [39]: 104%
- viability, T/C [40]: 103%
- viability, T/C [41]: 107%
- viability, T/C [42]: 94.2%
- viability, T/C (second compound 1 µM, first compound 0.949 µM): 71.6%
- viability, T/C (second compound 1 µM, first compound 3 µM): 75.8%
- viability, T/C [43]: 119%
- viability, T/C [44]: 107%
- viability, T/C [45]: 104%
- viability, T/C [46]: 94.6%
- viability, T/C (second compound 3.16 µM, first compound 0.949 µM): 76.5%
- viability, T/C (second compound 3.16 µM, first compound 3 µM): 56.8%
- viability, T/C [47]: 106%
- viability, T/C [48]: 105%
- viability, T/C [49]: 88.7%
- viability, T/C [50]: 95.6%
- viability, T/C (second compound 10 µM, first compound 0.949 µM): 72.9%
- viability, T/C (second compound 10 µM, first compound 3 µM): 66.9%

Structure (SMILES): Nc1ncn(C2CC(O)C(CO)S2)c(=O)n1 (stereo not given) + NC1CCC(NC2CC2c2ccccc2)CC1
- IC50 (second compound 0.1 µM): > 0.3 µM
- IC50 (second compound 0.316 µM): > 0.3 µM
- IC50 (second compound 1 µM): > 0.3 µM
- IC50 (second compound 3.16 µM): > 0.3 µM
- IC50 (second compound 10 µM): > 0.3 µM
- viability, T/C (second compound 0.1 µM, first compound 0.000949 µM): 97.4%
- viability, T/C (second compound 0.1 µM, first compound 0.003 µM): 82.8%
- viability, T/C [31]: 92.1%
- viability, T/C [32]: 85.2%
- viability, T/C [33]: 86.9%
- viability, T/C [34]: 82%
- viability, T/C (second compound 0.316 µM, first compound 0.000949 µM): 98.1%
- viability, T/C (second compound 0.316 µM, first compound 0.003 µM): 92%
- viability, T/C [35]: 105%
- viability, T/C [36]: 93.6%
- viability, T/C [37]: 86.7%
- viability, T/C [38]: 82.1%
- viability, T/C (second compound 1 µM, first compound 0.000949 µM): 92.8%
- viability, T/C (second compound 1 µM, first compound 0.003 µM): 84.5%
- viability, T/C [39]: 98.6%
- viability, T/C [40]: 101%
- viability, T/C [41]: 89.2%
- viability, T/C [42]: 72.4%
- viability, T/C (second compound 3.16 µM, first compound 0.000949 µM): 94.8%
- viability, T/C (second compound 3.16 µM, first compound 0.003 µM): 91.7%
- viability, T/C [43]: 77.4%
- viability, T/C [44]: 93.9%
- viability, T/C [45]: 77.7%
- viability, T/C [46]: 82.1%
- viability, T/C (second compound 10 µM, first compound 0.000949 µM): 70.8%
- viability, T/C (second compound 10 µM, first compound 0.003 µM): 84.5%
- viability, T/C [47]: 84.5%
- viability, T/C [48]: 83.9%
- viability, T/C [49]: 83.2%
- viability, T/C [50]: 63.6%

Structure (SMILES): O=C(C=Cn1cnc(-c2cc(C(F)(F)F)cc(C(F)(F)F)c2)n1)NNc1cnccn1 + NC1CCC(NC2CC2c2ccccc2)CC1
- IC50 (second compound 0.1 µM): 0.135 µM
- IC50 (second compound 0.316 µM): 0.189 µM
- IC50 (second compound 1 µM): 0.229 µM
- IC50 (second compound 3.16 µM): 0.215 µM
- IC50 (second compound 10 µM): 0.203 µM
- viability, T/C (second compound 0.1 µM, first compound 0.00316 µM): 86.6%
- viability, T/C (second compound 0.1 µM, first compound 0.01 µM): 91.2%
- viability, T/C [1]: 72.9%
- viability, T/C [2]: 50.2%
- viability, T/C [3]: 42.8%
- viability, T/C [4]: 24.6%
- viability, T/C (second compound 0.316 µM, first compound 0.00316 µM): 84.5%
- viability, T/C (second compound 0.316 µM, first compound 0.01 µM): 77.3%
- viability, T/C [7]: 81.3%
- viability, T/C [8]: 53.5%
- viability, T/C [9]: 46%
- viability, T/C [10]: 27.4%
- viability, T/C (second compound 1 µM, first compound 0.00316 µM): 90.5%
- viability, T/C (second compound 1 µM, first compound 0.01 µM): 101%
- viability, T/C [13]: 88.9%
- viability, T/C [14]: 62.4%
- viability, T/C [15]: 47%
- viability, T/C [16]: 18.5%
- viability, T/C (second compound 3.16 µM, first compound 0.00316 µM): 81.9%
- viability, T/C (second compound 3.16 µM, first compound 0.01 µM): 79.3%
- viability, T/C [19]: 92.1%
- viability, T/C [20]: 54.3%
- viability, T/C [21]: 48.3%
- viability, T/C [22]: 23.7%
- viability, T/C (second compound 10 µM, first compound 0.00316 µM): 87.5%
- viability, T/C (second compound 10 µM, first compound 0.01 µM): 86.6%
- viability, T/C [25]: 79.1%
- viability, T/C [26]: 59%
- viability, T/C [27]: 44.8%
- viability, T/C [28]: 29.5%
